Laboratory results: patent US11845892B2, “Use of complex polyesteramines and polyester polyquaternary ammonium compounds as corrosion inhibitors” (Clariant International, Ltd., priority 2021, dated 2023)

Experiment: Rotating Cage Autoclave Test (RCA), sour
Settings: 150 ppm, 200 ppm H2S, 15% CO2, balance N2, 65° C., 70 bar, 72 hours, 1700 rpm
Protocol: In order to evaluate the corrosion inhibition efficacy of the polyesters according to the invention, 4 different test methods were employed: Linear Polarizing Resistance (LPR), Rotating Cylinder Electrode Test (RCE), Shell wheel test and High Pressure/High Temperature Rotating Cage Autoclave Test (RCA). For all testing 3.5% NaCl brine was used. For the application tests the materials to be tested (inventive as well as comparative) were diluted with butyl glycol to an active content of 25 wt.-% prior to testing. The dosage rates given in the tables refer to these 25 wt.-% active formulations.
Autoclaves equipped with rotating cages (RCA) were used to simulate high shear conditions for the purpose of evaluating system corrosivity and inhibitor performance. The testing solution consisted of 720 mL 3.5% NaCl brine and 80 mL LVT-200 oil. The synthetic brine had three cycles of vacuum/CO2 charge to the vessel prior to initiating the test to remove dissolved oxygen and to achieve an anaerobic system. Two weight loss corrosion coupons fixed on the rotating cage were used in each autoclave. General corrosion rates were calculated by weight loss measurement. A blank was run for comparison. Test conditions have been summarized below in Table 5.

Q: What does the source list for “N-tallow alkyl hexahydropyrimidinium ethoxylate methosulfate [sample 6]”?
A: Average corrosion rate [mpy]: 8.99 mpy; Percent protection: 92.8%
